# Data published in ChEMBL document CHEMBL5500371, “Arginine and tryptophan-rich dendritic antimicrobial peptides that disrupt membranes for bacterial infection in vivo” (Eur J Med Chem, 2024).
# The source made the active and inactive calls. The rule behind the calls is not given here. Where a SMILES comes first, the peptide text is derived from it. Side-chain parts run from the residue outwards.
# Assays:
# [1] = Cytotoxicity against HEK293T cells assessed as cell death measured after 1 hr by resazurin dye based analysis; type: toxicity, HEK-293T; conditions: human, HEK293T cells
# Staphylococcus aureus [2] = assay: Antibacterial activity against Staphylococcus aureus ATCC 25923 assessed as inhibition of bacterial growth by measuring fold increase in MIC incubated for 20 hrs in presence of KCl by broth microdilution method relative to control; type: functional
# [3] = Therapeutic index, ratio of MHC10 for hemolytic activity in mouse erythrocytes preincubated with 10% mouse serum for 1 hr to MIC for Staphylococcus aureus ATCC 25923 preincubated with 10% mouse serum for 1 hr; type: toxicity, cell-based; conditions: mouse erythrocytes, read-out: TI
# Staphylococcus aureus [4] = assay: Additive antibacterial activity against Staphylococcus aureus ATCC 25923 assessed as fractional inhibitory concentration index at 0.25 to 4 times MIC incubated for 20 hrs in presence of kanamycin by checkerboard assay; type: functional
# Escherichia coli [5] = assay: […] activity against Escherichia coli ATCC 25922 infected in male BALB/c pulmonary infection model assessed as reduction in infiltration of pneumonia cells at 5 to 10 mg/kg, ip administered at 3 and 12 hrs post infection and measured 24 hrs post infection by H and E staining based analysis; type: functional, organism-based; conditions: dose 5-10 mg/kg, time 12-21 hrs
# Staphylococcus aureus [6] = assay: Synergistic antibacterial activity against Staphylococcus aureus ATCC 25923 assessed as fractional inhibitory concentration index at 0.25 to 4 times MIC incubated for 20 hrs in presence of gentamicin by checkerboard assay; type: functional
# Escherichia coli [7] = assay: Antibacterial activity against Escherichia coli ATCC 25922 assessed as inhibition of bacterial growth incubated for 20 hrs by broth microdilution method; type: functional
# Escherichia coli [8] = assay: Resistant development in Escherichia coli assessed as increase in MIC at sub-MIC in presence of rifampicin measured after 20 passages; type: functional, organism-based
# Acinetobacter baumannii = assay: Antibacterial activity against Acinetobacter baumannii ATCC 19606 assessed as inhibition of bacterial growth incubated for 20 hrs by broth microdilution method; type: functional
# Escherichia coli [9] = assay: Synergistic antibacterial activity against Escherichia coli ATCC 25922 assessed as fractional inhibitory concentration index at 0.25 to 4 times MIC incubated for 20 hrs in presence of kanamycin by checkerboard assay; type: functional
# Escherichia coli [10] = assay: Antibacterial activity against Escherichia coli ATCC 25922 assessed as inhibition of bacterial growth preincubated with 10% mouse serum for 1 hr and measured after 20 hrs by broth microdilution method; type: functional
# Staphylococcus aureus [11] = assay: Resistant development in Staphylococcus aureus assessed as increase in MIC at sub-MIC in presence of rifampicin measured after 20 passages; type: functional, organism-based
# Staphylococcus aureus [12] = assay: Antibacterial activity against Staphylococcus aureus ATCC 25923 assessed as inhibition of bacterial growth incubated for 20 hrs by broth microdilution method; type: functional
# Escherichia coli [13] = assay: Synergistic antibacterial activity against Escherichia coli ATCC 25922 assessed as fractional inhibitory concentration index at 0.25 to 4 times MIC incubated for 20 hrs in presence of polymyxin B by checkerboard assay; type: functional
# Staphylococcus aureus [14] = assay: Antibacterial activity against Staphylococcus aureus ATCC 25923 assessed as inhibition of bacterial growth by measuring fold increase in MIC incubated for 20 hrs in presence of MgCl2 by broth microdilution method relative to control; type: functional
# Cell membrane [15] = assay: Disruption of cell membrane morphology in Escherichia coli assessed as breakage of cell membrane at 2 times MIC measured after 0.5 to 2 hrs by SEM analysis; type: cell membranes; conditions: time 0.5-2 hrs
# Pseudomonas aeruginosa = assay: Antibacterial activity against Pseudomonas aeruginosa ATCC 27853 assessed as inhibition of bacterial growth incubated for 20 hrs by broth microdilution method; type: functional
# Staphylococcus aureus [16] = assay: Additive antibacterial activity against Staphylococcus aureus ATCC 25923 assessed as fractional inhibitory concentration index at 0.25 to 4 times MIC incubated for 20 hrs in presence of vancomycin by checkerboard assay; type: functional
# Staphylococcus aureus [17] = assay: Antibacterial activity against Staphylococcus aureus ATCC 25923 assessed as inhibition of bacterial growth by measuring fold increase in MIC incubated for 20 hrs in presence of NaCl by broth microdilution method relative to control; type: functional
# Escherichia coli [18] = assay: […] activity against Escherichia coli ATCC 25922 infected in male BALB/c pulmonary infection model assessed as reduction in liver hemorrhage at 5 to 10 mg/kg, ip administered at 3 and 12 hrs post infection and measured 24 hrs post infection by H and E staining based analysis; type: functional, organism-based; conditions: dose 5-10 mg/kg, time 12-21 hrs
# Bacillus subtilis = assay: Antibacterial activity against Bacillus subtilis ATCC 23857 assessed as inhibition of bacterial growth incubated for 20 hrs by broth microdilution method; type: functional
# Staphylococcus aureus [19] = assay: Antibacterial activity against Staphylococcus aureus ATCC 25923 assessed as inhibition of bacterial growth by measuring fold increase in MIC incubated for 20 hrs in presence of FeCl3 by broth microdilution method relative to control; type: functional
# [20] = Hemolytic activity in mouse erythrocytes at 256 uM preincubated for 1 to 6 hr with 10% mouse serum and measured after 1 hr by absorbance based analysis; type: toxicity, cell-based, Erythrocyte; conditions: time 1-7 hrs, read-out: Activity
# Staphylococcus aureus [21] = assay: Antibacterial activity against Staphylococcus aureus ATCC 25923 assessed as inhibition of bacterial growth by measuring fold increase in MIC incubated for 20 hrs in presence of ZnCl2 by broth microdilution method relative to control; type: functional
# Cell membrane [22] = assay: Induction of inner membrane permeabilization in Escherichia coli ML-35 ATCC 43837 at 0.5 to 4 times MIC measured every 5 mins over 135 mins by ONPG reagent based microplate reader analysis
# Klebsiella pneumoniae = assay: Antibacterial activity against Klebsiella pneumoniae ATCC 700603 assessed as inhibition of bacterial growth incubated for 20 hrs by broth microdilution method; type: functional
# Staphylococcus aureus [23] = assay: Antibacterial activity against Staphylococcus aureus ATCC 25923 assessed as inhibition of bacterial growth preincubated with 10% mouse serum for 1 hr and measured after 20 hrs by broth microdilution method; type: functional
# Staphylococcus aureus [24] = assay: Synergistic antibacterial activity against Staphylococcus aureus ATCC 25923 assessed as fractional inhibitory concentration index at 0.25 to 4 times MIC incubated for 20 hrs in presence of rifampicin by checkerboard assay; type: functional
# Escherichia coli [25] = assay: Antibacterial activity against Escherichia coli ATCC 25922 assessed as inhibition of bacterial growth preincubated with 10% mouse serum for 6 hrs and measured after 20 hrs by broth microdilution method; type: functional
# Cell membrane [26] = assay: Disruption of cell membrane morphology in Staphylococcus aureus assessed as release of cellular contents at 2 times MIC measured after 0.5 to 2 hrs by SEM analysis; type: cell membranes; conditions: time 0.5-2 hrs
# Staphylococcus aureus [27] = assay: Antibacterial activity against Staphylococcus aureus ATCC 25923 assessed as inhibition of bacterial growth preincubated with 10% mouse serum for 6 hrs and measured after 20 hrs by broth microdilution method; type: functional
# Staphylococcus aureus [28] = assay: Antibacterial activity against Staphylococcus aureus ATCC 25923 assessed as inhibition of bacterial growth incubated for 20 hrs in presence of KCl by broth microdilution method (reference value: 16 microM); type: functional
# Escherichia coli [29] = assay: Synergistic antibacterial activity against gentamicin resistant Escherichia coli ATCC 25922 assessed as fractional inhibitory concentration index at 0.25 to 4 times MIC incubated for 20 hrs in presence of gentamicin by checkerboard assay; type: functional
# Staphylococcus aureus [30] = assay: Antibacterial activity against Staphylococcus aureus ATCC 25923 assessed as inhibition of bacterial growth incubated for 20 hrs in presence of MgCl2 by broth microdilution method (reference value: 16 microM); type: functional
Compound,CC50 at 1 h [1],fold change (FC) (Staphylococcus aureus [2]),selectivity ratio [3],fractional inhibitory concentration index (FICI) (Staphylococcus aureus [4]),Activity (Escherichia coli [5]),fractional inhibitory concentration index (FICI) (Staphylococcus aureus [6]),MIC (Escherichia coli [7]),Activity (Escherichia coli [8]),MIC (Acinetobacter baumannii),fractional inhibitory concentration index (FICI) (Escherichia coli [9]),MIC (Escherichia coli [10]; time 21 hrs),MIC (Staphylococcus aureus [12]),fold change (FC) (Staphylococcus aureus [14]),MIC (Pseudomonas aeruginosa),fractional inhibitory concentration index (FICI) (Staphylococcus aureus [16]),fold change (FC) (Staphylococcus aureus [17]),MIC (Bacillus subtilis),fold change (FC) (Staphylococcus aureus [19]),fold change (FC) (Staphylococcus aureus [21]),MIC (Klebsiella pneumoniae),further results
N=C(N)NCCC[C@H](NC(=O)[C@H](CCCNC(=N)N)NC(=O)[C@H](CCCNC(=N)N)NC(=O)[C@@H](N)CCCNC(=N)N)C(=O)N[C@@H](CCCCN)C(=O)N[C@@H](Cc1c[nH]c2ccccc12)C(=O)N[C@@H](Cc1c[nH]c2ccccc12)C(=O)N[C@@H](Cc1c[nH]c2ccccc12)C(=O)N[C@@H](Cc1c[nH]c2ccccc12)C(N)=O,> 128 µM,<=2,0.5,0.563,Active,0.375,8 µM,inactive,64 µM,0.5,2 µM,8 µM,<=2,16 µM,0.563,<=2,4 µM,<=2,<=2,32 µM,"Activity (Staphylococcus aureus [11]): inactive; fractional inhibitory concentration index (FICI) (Escherichia coli [13]): 0.5; Activity (Cell membrane [15]): Active; Activity (Escherichia coli [18]): Active; hemolysis at 1 h, 256 µM [20]: < 10%; Activity (Cell membrane [22]): Dose-Dependent Effect; MIC (Staphylococcus aureus [23]; time 21 hrs): 2 µM; fractional inhibitory concentration index (FICI) (Staphylococcus aureus [24]): 0.375; MIC (Escherichia coli [25]; time 26 hrs): 4 µM; Activity (Cell membrane [26]): Active; MIC (Staphylococcus aureus [27]; time 21 hrs): 2 µM"
N=C(N)NCCC[C@H](NC(=O)[C@@H](N)CCCNC(=N)N)C(=O)NCCCC[C@H](NC(=O)[C@H](CCCNC(=N)N)NC(=O)[C@@H](N)CCCNC(=N)N)C(=O)N[C@@H](Cc1c[nH]c2ccccc12)C(=O)N[C@@H](Cc1c[nH]c2ccccc12)C(=O)N[C@@H](Cc1c[nH]c2ccccc12)C(=O)N[C@@H](Cc1c[nH]c2ccccc12)C(N)=O (H-RRK([Arg-Arg])WWWW-NH2),> 128 µM,<=2,1,0.563,Active,0.313,16 µM,inactive,32 µM,,1 µM,16 µM,<=2,8 µM,0.563,<=2,4 µM,<=2,<=2,64 µM,"MIC (Staphylococcus aureus [28]): 8 µM; Activity (Staphylococcus aureus [11]): inactive; fractional inhibitory concentration index (FICI) (Escherichia coli [13]): 0.5; Activity (Cell membrane [15]): Active; Activity (Escherichia coli [18]): Active; hemolysis at 1 h, 256 µM [20]: < 10%; Activity (Cell membrane [22]): Dose-Dependent Effect; MIC (Staphylococcus aureus [23]; time 21 hrs): 1 µM; fractional inhibitory concentration index (FICI) (Escherichia coli [29]): 5; fractional inhibitory concentration index (FICI) (Staphylococcus aureus [24]): 0.375; MIC (Escherichia coli [25]; time 26 hrs): 2 µM; Activity (Cell membrane [26]): Active; MIC (Staphylococcus aureus [27]; time 21 hrs): 1 µM; MIC (Staphylococcus aureus [30]): 8 µM"
POLYMYXIN B,,< 2,,0.563,,0.313,4 µM,,2 µM,0.5,,16 µM,< 2,4 µM,0.563,4,4 µM,< 2,< 2,4 µM,MIC (Staphylococcus aureus [28]): 16 µM; MIC (Escherichia coli [10]; time 21.0 hrs): 1 µM; MIC (Staphylococcus aureus [23]; time 21.0 hrs): 1 µM; fractional inhibitory concentration index (FICI) (Escherichia coli [29]): 0.312; MIC (Escherichia coli [25]; time 26.0 hrs): 2 µM; MIC (Staphylococcus aureus [27]; time 21.0 hrs): 1 µM; MIC (Staphylococcus aureus [30]): 16 µM
